Measured values from US8110588B2, “1,2,3-triazole derivatives useful as modulators of nicotinic acetylcholine receptors” (Neurosearch A/S, priority 2007, dated 2012).

What was measured:
[1] = biological target: T1, wild-type nAChR α7 receptors (Homo sapiens, UniProt P36544); test: Positive modulation of acetylcholine-induced currents, two-electrode voltage clamp in Xenopus oocytes; assay type: cell-based; settings: for maximal modulation of the acetylcholine (control) response (Imax) / EC50: 100 μM acetylcholine, nAChR α7 expressed in Xenopus laevis oocytes; for maximal modulation of the acetylcholine (control) response (Imax): (test-control)/control×100%; for EC50: clamped at −60 mV, compound 0.01-31.6 μM, read-out: EC50 for positive modulation of acetylcholine responses; for effect on acetylcholine-induced current amplitude: 0.01-31.6 μM compound applied 30 s before and during 100 μM acetylcholine application
T1 construct: expressed in transfected cells; host or cells: Xenopus laevis oocytes
Protocol: In this example the positive modulation of wild-type nAChR α7 receptors by Compound 1 (FIGS. 1A and 1B) and Compound 3 (FIGS. 2A and 2B) was determined using nAChR α7 receptors heterologously expressed in Xenopus laevis oocytes.
The electrical current through the nAChR α7 channel was measured using conventional two-electrode voltage clamp and nAChR α7 currents were activated by applying pulses of agonist-containing solution onto the nAChR α7 expressing oocyte. In brief, the oocytes were placed in a recording chambers and continuously superfused with an Oocyte Ringer (OR) solution containing 90 mM NaCl, 2.5 mM KCl, 2.5 mM CaCl2, 1 mM MgCl2 and 5 mM HEPES (pH adjusted to 7.4). The oocytes were clamped at −60 mV and currents were induced by applying 20 s pulses of 100 μM acetylcholine dissolved in OR. The intervals between the acetylcholine applications were 5 minutes, during which the oocytes were washed with OR. The first three applications were control applications to insure a constant response level of 100 μM acetylcholine.
The positive modulation in the presence of Compound 1 and Compound 3 was calculated as (test-control)/control×100% and the concentration response curve for this positive modulation was fitted to the sigmoidal logistic equation: I=Imax/(1+(EC50/[compound])^n), where Imax represents the maximal modulation of the control response, EC50 is the concentration causing a half maximal response, and n is the slope coefficient.

T1 sequence (P36544 23-502): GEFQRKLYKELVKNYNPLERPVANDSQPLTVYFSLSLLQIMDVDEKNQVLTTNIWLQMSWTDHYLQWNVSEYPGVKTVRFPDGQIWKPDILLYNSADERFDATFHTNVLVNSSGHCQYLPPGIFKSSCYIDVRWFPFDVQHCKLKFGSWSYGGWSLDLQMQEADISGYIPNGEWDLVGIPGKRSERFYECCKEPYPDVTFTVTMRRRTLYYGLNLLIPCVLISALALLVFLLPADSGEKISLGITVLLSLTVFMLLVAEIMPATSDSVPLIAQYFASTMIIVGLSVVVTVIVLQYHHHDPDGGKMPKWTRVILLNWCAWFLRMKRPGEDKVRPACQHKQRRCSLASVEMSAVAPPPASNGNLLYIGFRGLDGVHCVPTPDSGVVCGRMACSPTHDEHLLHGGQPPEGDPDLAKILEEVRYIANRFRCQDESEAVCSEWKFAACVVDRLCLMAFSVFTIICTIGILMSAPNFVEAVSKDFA

| melting point [°C] | also measured | Compound |
| --- | --- | --- |
| 131.3 to 135.6 | – | Nc1c(-c2cc(Cl)ccc2O)nnn1-c1ccc(Cl)cc1Cl [Compound 8, 2-[5-Amino-1-(2,4-dichloro-phenyl)-1H-[1,2,3]triazol-4-yl]-4-chloro-phenol] |
| 169.9 to 170.2 | – | Nc1c(-c2ccc(Cl)cc2)nnn1-c1ccc(C(F)(F)F)cc1F [Compound 18, 5-(4-Chloro-phenyl)-3-(2-fluoro-4-trifluoromethyl-phenyl)-3H-[1,2,3]triazol-4-ylamine] |
| 114.8 to 116.2 | – | CC(=O)Nc1ccc(-c2nnn(-c3ccc(C(F)(F)F)cc3F)c2N)cc1 [Compound 11, N-{4-[5-Amino-1-(2-fluoro-4-trifluoromethyl-phenyl)-1H-[1,2,3]triazol-4-yl]-phenyl}-acetamide] |
| 175 to 176.8 | – | COc1ccc(-n2nnc(-c3ccc(F)cc3Cl)c2N)cc1 [Compound 25, 5-(2-Chloro-4-fluoro-phenyl)-3-(4-methoxy-phenyl)-3H-[1,2,3]triazol-4-ylamine] |
| 153.5 to 154.7 | – | COc1ccc(Cl)cc1-c1nnn(-c2ccc(Cl)cc2Cl)c1N [Compound 4, 5-(5-Chloro-2-methoxy-phenyl)-3-(2,4-dichloro-phenyl)-3H-[1,2,3]triazol-4-ylamine] |
| 152 to 156.5 | – | COc1ccc(-n2nnc(-c3ccc(F)cc3F)c2N)cc1 [Compound 24, 5-(2,4-Difluoro-phenyl)-3-(4-methoxy-phenyl)-3H-[1,2,3]triazol-4-ylamine] |
| 164.6 to 165.5 | – | COc1ccc(-n2nnc(-c3ccc(C(F)(F)F)cc3F)c2N)cc1 [Compound 16, 5-(2-Fluoro-4-trifluoromethyl-phenyl)-3-(4-methoxy-phenyl)-3H-[1,2,3]triazol-4-ylamine] |
| 189.9 to 191.3 | – | COc1ccc(-n2nnc(-c3ccc(Cl)c(Cl)c3)c2N)cc1 [Compound 26, 5-(3,4-Dichloro-phenyl)-3-(4-methoxy-phenyl)-3H-[1,2,3]triazol-4-ylamine] |
| 159.2 to 160.2 | – | COc1ccc(-n2nnc(-c3ccc(Cl)cc3C(F)(F)F)c2N)cc1 [Compound 23, 5-(4-Chloro-2-trifluoromethyl-phenyl)-3-(4-methoxy-phenyl)-3H-[1,2,3]triazol-4-ylamine] |
| 149.2 to 150.7 | maximal modulation of the acetylcholine (control) response (Imax) [1]: 561%; EC50 [1]: 4.9 µM; effect on acetylcholine-induced current amplitude [1]: robust increase | COc1ccc(-c2nnn(-c3ccc(Cl)cc3Cl)c2N)cc1 [Compound 1, 3-(2,4-Dichloro-phenyl)-5-(4-methoxy-phenyl)-3H-[1,2,3]triazol-4-ylamine] |
| 154.6 to 163.9 | – | COc1ccc(-n2nnc(-c3ccc(Cl)cc3Cl)c2N)cc1 [Compound 6, 5-(2,4-Dichloro-phenyl)-3-(4-methoxy-phenyl)-3H-[1,2,3]triazol-4-ylamine] |
| 163.5 to 165.2 | – | Nc1c(-c2ccc(O)cc2)nnn1-c1ccc(C(F)(F)F)cc1F [Compound 15, 4-[5-Amino-1-(2-fluoro-4-trifluoromethyl-phenyl)-1H-[1,2,3]triazol-4-yl]-phenol] |
| 74.5 to 77.5 | – | Nc1c(-c2cc(Cl)ccc2O)nnn1-c1ccc(C(F)(F)F)cc1Cl [Compound 9, 2-[5-Amino-1-(2-chloro-4-trifluoromethyl-phenyl)-1H-[1,2,3]triazol-4-yl]-4-chloro-phenol] |
| 136.3 to 141.2 | – | COc1ccc(-c2nnn(-c3ccc(F)cc3Cl)c2N)cc1 [Compound 5, 3-(2-Chloro-4-fluoro-phenyl)-5-(4-methoxy-phenyl)-3H-[1,2,3]triazol-4-ylamine] |
| 176.2 to 177.5 | – | Nc1c(-c2ccc(C(F)(F)F)cc2F)nnn1-c1ccc(O)cc1 [Compound 17, 4-[5-Amino-4-(2-fluoro-4-trifluoromethyl-phenyl)-[1,2,3]triazol-1-yl]-phenol] |
| 147.9 to 149.5 | – | COc1ccc(-n2nnc(-c3ccc(Cl)cc3F)c2N)cc1 [Compound 27, 5-(4-Chloro-2-fluoro-phenyl)-3-(4-methoxy-phenyl)-3H-[1,2,3]triazol-4-ylamine] |
| 136.3 to 141.2 | – | COc1ccc(-c2nnn(-c3cc(C)on3)c2N)cc1 [Compound 7, 5-(4-Methoxy-phenyl)-3-(5-methyl-isoxazol-3-yl)-3H-[1,2,3]triazol-4-yl amine] |
| 163.6 to 165 | – | Nc1ccc(-c2nnn(-c3ccc(C(F)(F)F)cc3F)c2N)cc1 [Compound 12, 5-(4-Amino-phenyl)-3-(2-fluoro-4-trifluoromethyl-phenyl)-3H-[1,2,3]triazol-4-ylamine] |
| 130 to 130.7 | maximal modulation of the acetylcholine (control) response (Imax) [1]: 563%; EC50 [1]: 1.7 µM; effect on acetylcholine-induced current amplitude [1]: robust increase | COc1ccc(-c2nnn(-c3ccc(C(F)(F)F)cc3Cl)c2N)cc1 [Compound 3, 3-(2-Chloro-4-trifluoromethyl-phenyl)-5-(4-methoxy-phenyl)-3H-[1,2,3]triazol-4-ylamine] |
| 152.8 to 153.3 | – | COc1ccc(Cl)cc1-c1nnn(-c2ccc(C(F)(F)F)cc2Cl)c1N [Compound 2, 5-(5-Chloro-2-methoxy-phenyl)-3-(2-chloro-4-trifluoromethyl-phenyl)-3H-[1,2,3]triazol-4-ylamine] |
| 161 to 162.3 | – | Nc1c(-c2ccc(O)cc2)nnn1-c1ccc(C(F)(F)F)cc1Cl [Compound 21, 4-[5-Amino-1-(2-chloro-4-trifluoromethyl-phenyl)-1H-[1,2,3]triazol-4-yl]-phenol] |
| 72.5 to 73.6 | – | COc1ccc(-c2nnn(-c3c(Cl)cc(Cl)cc3I)c2N)cc1 [Compound 22, 3-(2,4-Dichloro-6-iodo-phenyl)-5-(4-methoxy-phenyl)-3H-[1,2,3]triazol-4-ylamine] |
| 183.8 to 185.2 | – | Nc1c(-c2ccc(C(F)(F)F)cc2F)nnn1-c1ccc(S(N)(=O)=O)cc1 [Compound 13, 4-[5-Amino-4-(2-fluoro-4-trifluoromethyl-phenyl)-[1,2,3]triazol-1-yl]-benzenesulfonamide] |
| 134.2 to 134.9 | – | Nc1c(-c2ccc(OC(F)(F)F)cc2)nnn1-c1ccc(C(F)(F)F)cc1F [Compound 19, 3-(2-Fluoro-4-trifluoromethyl-phenyl)-5-(4-trifluoromethoxy-phenyl)-3H-[1,2,3]triazol-4-ylamine] |
| 184.6 to 186.1 | – | Nc1c(-c2ccc(-c3nnco3)cc2)nnn1-c1ccc(C(F)(F)F)cc1F [Compound 10, 3-(2-Fluoro-4-trifluoromethyl-phenyl)-5-(4-[1,3,4]oxadiazol-2-yl-phenyl)-3H-[1,2,3]triazol-4-ylamine] |
